The record followed here is patent publication US20240207263A1, “SELECTIVE MODULATORS OF ATAXIA TELA[…] (ATM) KINASE AND USES THEREOF” (priority 2021, published 2024).

Assay [1] relates to phosp-KAP1 in MCF-7 cells. Briefly: phosp-KAP1 MCF-7 cellular potency assay (Assay f). The format is cell-based. Conditions: Homo sapiens. How it is done:
Assay f): phosp-KAP1 MCF-7 Cellular Potency
MCF-7 cells were seeded to a 384-well cell-culture plate, 25 μl/well which were incubated at 37° C. and 5% CO2 for 24 hr. Test compounds were added to the 384-well plates. Etoposide at final concentration of 100 μM was then added to each well except Vehicle control wells, which were incubated at 37° C. and 5% CO2 for 1 hour. After medium removal, cells were fixed by the addition of 25 μl/well of 8% paraformaldehyde in PBSA and incubated for 20 minutes at room temperature. After the plates were rinsed 3 times with PBSA, 50 ul permeabilization buffer (0.1% Triton X-100 in PBS) was added and the plates were incubated for 20 minutes at room temperature. After the plates were rinsed with PBSA, block the cells by adding 50 μl of Odyssey Blocking Buffer in 384-well plate and then incubate for 1.5 hours at room temperature. Remove blocking buffer by Plate washer (BioTek ELx405 select CW). […] The plates were rinsed 5 times with PBST (0.1% Tween-20 in PBS).
• 1) Fluorescence intensity (FI) was detected for each well. • 2) % inhibition is calculated as follow:
[formula] • FIpositive: The average FI for the positive controls across the plate. • FIvehicle: The average FI for negative controls across the plate. • 3) Calculate IC50 and Plot effect-dose curve of compounds: • Calculate IC50 by fitting % inhibition values and log of compound concentrations to nonlinear regression (dose response−variable slope) with Graphpad prism 6.0.
Y=Bottom+(Top−Bottom)/(1+10^((Log IC50−X)*HillSlope)) • X: log of compounds concentration; Y: % inhibition

For another assay, the target named is PIK3Cβ (p110β) (Homo sapiens (Human), UniProt P42338). Briefly: PI3K biochemical potency assay (Assay c), PIK3Cβ.
Another assay has as its target PI3Kα (p110α/p85a) (Homo sapiens (Human), UniProt P42336). Briefly: PI3K biochemical potency assay (Assay c), PI3Kα.
The target in another assay is PIK3Cδ (Homo sapiens (Human), UniProt O00329). Briefly: PI3K biochemical potency assay (Assay c), PIK3Cδ.
The target of the next assay is mTOR (Homo sapiens (Human), UniProt P42345). The assay can be described thus: mTOR biochemical potency assay (Assay d).
Another assay deals with PIK3Cγ (pp110γ) (Homo sapiens (Human), UniProt P48736). Briefly: PI3K biochemical potency assay (Assay c), PIK3Cγ.
A further assay addresses ATR (Homo sapiens (Human), UniProt Q13535). The assay can be described thus: ATR biochemical potency assay (Assay b). How it is done:
Assay b): ATR Biochemical Potency
The plate was incubated at room temperature for 10 minutes. 2× peptide solutions were prepared with FAM-labeled peptide and ATP in the 1× kinase base buffer. […] 40 μl of stop buffer was added to stop reaction. Data were collected by Caliper.

Assay [2] addresses ATM (phospho-ATM Ser1981) in SN38 treated HT-29 cells (Homo sapiens (Human), UniProt Q13315). The assay can be described thus: cell-based. The procedure: Assay g): ATM SN-38 HT-29 Cellular Potency
SN38 causes single strand DNA breaks (SSBs) which are converted to double strand breaks (DSBs) during replication. ATM plays role of repairing DSBs. Inhibition of ATM was evaluated in SN38 treated HT-29 cells (ATCC, Cat #HTB-38) by high-Content Imaging System
The graphical views were then generated using Prism 7.0 (Graphpad).

For another assay, the target named is ATM (Homo sapiens (Human), UniProt Q13315). The assay can be described thus: biochemical. The format is biochemical. Conditions: read-out: ATM IC50. The source says:
Assay a): ATM Biochemical Potency
Data was collected by Caliper.

The next assay has as its target DNA-PK (Homo sapiens (Human), UniProt P78527). The assay can be described thus: DNA-PK biochemical assay (Assay e). The procedure:
Assay e): DNA-PK Biochemical Assay
The final concentration: Substrate 0.2 ug/ml and ATP 20 uM. […] The plate was equilibrated for 2 hr at room temperature.

The test system of the next assay is FaDu xenograft. The assay can be described thus: FaDu xenograft model, radiation combination (Assay i). The format is in vivo, mouse. To be noted: for tumor response in FaDu xenograft efficacy study: oral compound in combination with IR (2 Gy per day, 5 days per cycle); for Inhibition (% TGI) Combo: combo with IR. How it is done:
Assay i): FaDu Xenograft Model
Cell culture: FaDu tumor cells were cultured in an EMEM medium containing inactivated 10% fetal bovine serum, 100 U/ml penicillin and 100 μg/ml streptomycin in a 37° C., 5% CO2 incubator.
Inoculation and grouping: Xenografts were established by implantation of 100 μl of Fadu tumor cell suspension (5×10^6 cells/mouse) subcutaneously into the right flank of female immune-compromised BALB/c nude mice at least 6 weeks of age. Tumours were measured in two dimensions with calipers and the tumour volume was calculated using the following formula: tumor volume=(length×width^2)×0.5. When the average tumor volume reached 100 to 150 mm^3, tumour-bearing mice were randomized into treatment groups.
Treatment and tumor assessment: Animals received 3 to 6 cycles of treatment with compounds combined with radiation therapy. Each cycle included 5 consecutive treatment day plus 2 days' rest. Ionizing radiation was administered using a fractionated schedule of 2 Gy per day administered over 5 consecutive days (total radiation dose=10 Gy/cycle). Compound was given orally 10 minutes before irradiation. The tumour volume and body weight of the mice were measured twice weekly.
Statistical Analysis: The One-Way ANOVA test was used for statistical analysis of tumor volume between groups, and p<0.05 was considered as a significant difference.

Where [3] appears, read: MCF7, MCF-7 cells, etoposide, read-out: Etoposide MCF-7 cellular IC50.

Read-outs that look alike come from different tables or passages of the source. Some results are limits rather than exact numbers.

A word on the IC50: it is the concentration that inhibits the measured activity by half.

PIK3Cγ (pp110γ), sequence (P48736 whole entry): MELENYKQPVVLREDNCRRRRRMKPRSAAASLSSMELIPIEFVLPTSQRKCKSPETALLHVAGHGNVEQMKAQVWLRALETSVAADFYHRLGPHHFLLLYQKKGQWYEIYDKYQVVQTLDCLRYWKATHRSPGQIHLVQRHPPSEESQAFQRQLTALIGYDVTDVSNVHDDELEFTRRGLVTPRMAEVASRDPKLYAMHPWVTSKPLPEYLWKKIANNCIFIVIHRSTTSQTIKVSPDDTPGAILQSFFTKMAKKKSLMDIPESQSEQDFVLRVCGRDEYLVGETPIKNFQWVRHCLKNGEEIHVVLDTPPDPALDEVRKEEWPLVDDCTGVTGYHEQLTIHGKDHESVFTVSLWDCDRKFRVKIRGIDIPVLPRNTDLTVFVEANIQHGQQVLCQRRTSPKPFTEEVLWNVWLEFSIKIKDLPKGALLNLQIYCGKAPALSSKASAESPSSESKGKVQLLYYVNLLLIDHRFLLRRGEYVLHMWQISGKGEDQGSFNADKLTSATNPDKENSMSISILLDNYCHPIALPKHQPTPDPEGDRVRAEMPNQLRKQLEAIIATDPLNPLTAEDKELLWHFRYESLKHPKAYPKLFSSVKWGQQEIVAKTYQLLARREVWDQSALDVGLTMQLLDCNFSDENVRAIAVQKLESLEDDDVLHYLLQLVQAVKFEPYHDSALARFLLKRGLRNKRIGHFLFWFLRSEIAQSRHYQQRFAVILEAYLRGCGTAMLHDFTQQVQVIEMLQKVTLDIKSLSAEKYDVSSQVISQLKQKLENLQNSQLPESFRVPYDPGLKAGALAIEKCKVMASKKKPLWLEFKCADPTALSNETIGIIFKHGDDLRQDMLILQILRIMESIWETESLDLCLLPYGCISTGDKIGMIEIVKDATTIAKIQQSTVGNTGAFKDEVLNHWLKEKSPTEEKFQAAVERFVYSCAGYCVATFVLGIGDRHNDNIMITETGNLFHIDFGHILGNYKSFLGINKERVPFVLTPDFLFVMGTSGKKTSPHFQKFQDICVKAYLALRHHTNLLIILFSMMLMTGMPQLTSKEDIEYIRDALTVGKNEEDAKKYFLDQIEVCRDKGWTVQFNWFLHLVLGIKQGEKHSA
ATR, sequence (Q13535 whole entry, looked up): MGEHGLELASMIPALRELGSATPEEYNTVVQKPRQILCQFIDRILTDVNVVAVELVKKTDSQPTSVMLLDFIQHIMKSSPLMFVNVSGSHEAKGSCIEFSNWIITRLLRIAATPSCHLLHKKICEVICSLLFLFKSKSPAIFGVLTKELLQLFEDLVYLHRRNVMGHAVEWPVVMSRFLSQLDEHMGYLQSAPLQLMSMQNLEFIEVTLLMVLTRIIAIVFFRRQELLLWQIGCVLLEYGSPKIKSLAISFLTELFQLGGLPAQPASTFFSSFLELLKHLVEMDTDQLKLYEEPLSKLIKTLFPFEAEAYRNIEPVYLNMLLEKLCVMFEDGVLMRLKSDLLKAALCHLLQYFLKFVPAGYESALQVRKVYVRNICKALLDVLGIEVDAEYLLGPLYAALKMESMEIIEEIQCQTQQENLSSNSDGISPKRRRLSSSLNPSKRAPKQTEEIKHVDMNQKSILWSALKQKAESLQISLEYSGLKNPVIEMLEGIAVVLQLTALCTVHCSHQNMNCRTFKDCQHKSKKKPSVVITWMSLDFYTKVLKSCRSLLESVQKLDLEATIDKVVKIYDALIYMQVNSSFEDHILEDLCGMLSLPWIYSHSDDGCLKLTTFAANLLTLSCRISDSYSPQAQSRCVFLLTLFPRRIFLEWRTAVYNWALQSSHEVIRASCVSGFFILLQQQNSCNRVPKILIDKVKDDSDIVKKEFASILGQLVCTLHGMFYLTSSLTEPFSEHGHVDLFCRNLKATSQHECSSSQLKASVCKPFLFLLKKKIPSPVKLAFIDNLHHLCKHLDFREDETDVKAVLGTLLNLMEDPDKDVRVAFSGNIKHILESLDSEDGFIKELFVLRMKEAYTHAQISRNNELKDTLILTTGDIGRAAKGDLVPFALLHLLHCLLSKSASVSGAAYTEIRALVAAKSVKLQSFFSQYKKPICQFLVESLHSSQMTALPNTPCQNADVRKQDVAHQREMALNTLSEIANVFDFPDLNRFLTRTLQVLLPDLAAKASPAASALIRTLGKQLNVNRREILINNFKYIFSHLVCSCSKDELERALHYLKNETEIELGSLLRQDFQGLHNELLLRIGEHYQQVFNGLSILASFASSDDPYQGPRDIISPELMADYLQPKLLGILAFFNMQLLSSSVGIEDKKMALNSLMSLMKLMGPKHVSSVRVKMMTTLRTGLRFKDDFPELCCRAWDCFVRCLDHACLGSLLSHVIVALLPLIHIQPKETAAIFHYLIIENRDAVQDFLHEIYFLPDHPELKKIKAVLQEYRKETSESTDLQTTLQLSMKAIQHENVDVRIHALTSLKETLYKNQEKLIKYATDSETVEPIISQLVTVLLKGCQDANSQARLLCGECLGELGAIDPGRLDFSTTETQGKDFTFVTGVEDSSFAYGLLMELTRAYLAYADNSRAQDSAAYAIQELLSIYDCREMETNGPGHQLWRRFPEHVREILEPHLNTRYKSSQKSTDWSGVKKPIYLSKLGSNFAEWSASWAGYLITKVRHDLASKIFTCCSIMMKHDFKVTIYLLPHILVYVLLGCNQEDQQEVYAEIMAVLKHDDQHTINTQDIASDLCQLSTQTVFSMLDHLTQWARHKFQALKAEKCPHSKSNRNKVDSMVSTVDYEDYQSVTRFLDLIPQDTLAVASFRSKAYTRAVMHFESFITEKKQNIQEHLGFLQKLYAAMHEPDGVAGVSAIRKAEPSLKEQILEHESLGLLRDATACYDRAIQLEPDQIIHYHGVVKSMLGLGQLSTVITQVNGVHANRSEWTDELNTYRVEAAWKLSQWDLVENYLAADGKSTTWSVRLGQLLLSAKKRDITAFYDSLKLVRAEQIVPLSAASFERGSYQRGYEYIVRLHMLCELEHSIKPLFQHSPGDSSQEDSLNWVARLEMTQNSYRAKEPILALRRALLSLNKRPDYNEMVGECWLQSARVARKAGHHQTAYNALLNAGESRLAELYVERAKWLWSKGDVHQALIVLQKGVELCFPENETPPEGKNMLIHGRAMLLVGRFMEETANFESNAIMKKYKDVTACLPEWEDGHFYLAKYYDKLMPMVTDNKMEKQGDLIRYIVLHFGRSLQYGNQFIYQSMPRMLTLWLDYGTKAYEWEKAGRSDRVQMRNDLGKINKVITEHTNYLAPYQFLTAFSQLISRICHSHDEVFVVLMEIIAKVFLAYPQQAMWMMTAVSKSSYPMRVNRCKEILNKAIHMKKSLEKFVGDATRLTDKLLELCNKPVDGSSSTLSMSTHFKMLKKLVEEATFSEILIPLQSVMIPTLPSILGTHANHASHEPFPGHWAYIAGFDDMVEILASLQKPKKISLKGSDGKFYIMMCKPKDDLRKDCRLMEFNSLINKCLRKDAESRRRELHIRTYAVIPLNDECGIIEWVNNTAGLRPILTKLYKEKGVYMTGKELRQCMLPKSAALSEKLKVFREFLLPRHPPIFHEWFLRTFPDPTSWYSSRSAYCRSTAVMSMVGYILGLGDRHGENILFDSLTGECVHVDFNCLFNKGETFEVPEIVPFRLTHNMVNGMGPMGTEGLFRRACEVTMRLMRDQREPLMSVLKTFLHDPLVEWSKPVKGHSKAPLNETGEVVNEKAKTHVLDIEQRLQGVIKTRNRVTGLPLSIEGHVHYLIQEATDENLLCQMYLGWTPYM
ATR, sequence (Q8WXE1 whole entry partner, looked up): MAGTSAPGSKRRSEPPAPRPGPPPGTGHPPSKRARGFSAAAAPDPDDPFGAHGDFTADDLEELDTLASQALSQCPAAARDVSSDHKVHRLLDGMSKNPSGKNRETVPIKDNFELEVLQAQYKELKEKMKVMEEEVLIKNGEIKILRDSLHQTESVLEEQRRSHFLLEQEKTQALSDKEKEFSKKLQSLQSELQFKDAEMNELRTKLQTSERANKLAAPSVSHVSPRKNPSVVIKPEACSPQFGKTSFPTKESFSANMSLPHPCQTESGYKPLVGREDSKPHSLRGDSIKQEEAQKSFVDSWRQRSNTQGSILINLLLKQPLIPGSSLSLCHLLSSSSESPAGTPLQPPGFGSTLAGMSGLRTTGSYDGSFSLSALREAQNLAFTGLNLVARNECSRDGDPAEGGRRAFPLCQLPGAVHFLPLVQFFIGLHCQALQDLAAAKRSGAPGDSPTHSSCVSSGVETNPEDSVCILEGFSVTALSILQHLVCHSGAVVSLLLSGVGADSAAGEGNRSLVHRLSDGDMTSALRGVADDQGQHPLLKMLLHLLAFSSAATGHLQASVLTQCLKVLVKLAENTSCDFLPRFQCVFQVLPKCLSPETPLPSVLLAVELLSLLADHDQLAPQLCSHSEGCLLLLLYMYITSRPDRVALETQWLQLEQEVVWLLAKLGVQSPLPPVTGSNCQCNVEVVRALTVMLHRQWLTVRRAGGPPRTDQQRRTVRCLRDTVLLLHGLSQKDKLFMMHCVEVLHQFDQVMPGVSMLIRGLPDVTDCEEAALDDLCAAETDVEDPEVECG
Method for PI3Kα (p110α/p85a): Assay c): PI3K Biochemical Potency
(§1) 2.5 μl of kinase solution was added to each well of the 384-well assay plate, which contains 2.5 μl of compounds with serially diluted concentration. 2× substrate solution was prepared with PIP2 substrate and ATP in 1× kinase reaction buffer at 2-fold of the final concentration of each reagent in the assay. 5 μl of substrate solution was added to each well of the assay plate to start reaction. The assay plate was incubated at room temperature for 1 hour. 5 μl reaction mix was transferred to a new 384 well plate. 5 μl of ADP-Glo reagent (Promega, Cat. No. v9102/3) was added to each well of the new assay plate to stop the reaction. The plate was shaken slowly and equilibrated for 40 minutes. 10 μl kinase detection reagents were added to each well, which was equilibrated for 60 minutes before read on a plate reader (Envision) for luminescence.
Method for PIK3Cβ (p110β): Assay c): PI3K Biochemical Potency
as §1
Method for PIK3Cγ (pp110γ): Assay c): PI3K Biochemical Potency
as §1
Method for PIK3Cδ: Assay c): PI3K Biochemical Potency
as §1
Method for mTOR: Assay d): mTOR Biochemical Potency
Solution of mTOR enzymes (Millipore, Cat. No. 14-770) was prepared in 1× kinase buffer at 4-fold of the final concentration (final concentration: 6 nM) in the assay. 2.5 μl of kinase solution was added to each well of the 384-well assay plate, which contains 2.5 μl of compounds with serially diluted concentration. 2× substrate solution was prepared with ULight-4E-BP1 (Thr37/46) Peptide (PE, Cat. No. TRF0128-M) and ATP in 1× kinase reaction buffer at 2-fold of the final concentration of each reagent in the assay. 5 μl of substrate solution was added to each well of the assay plate to start reaction. The assay plate was incubated at room temperature for 30 minutes. Detection solution of kinase quench buffer (EDTA) and Eu-anti-phospho-4E-BP1 antibody (Thr37/46) (PE, Cat. No. TRF0216-M) were prepared at 2-fold the desired final concentrations of each reagent in Lance detection buffer. 10 μl of detection solution buffer was added to each well of the assay plate.

As for `CC(C)n1c(=O)n(C)c2nnc3ccc(-c4ccc([C@@H](C)OCCN5CCC6(CC6)C5)nc4)cc3c21` [Example 53, (R)-8-(6-(1-(2-(5-azaspiro[2.4]heptan-5-yl)ethoxy)ethyl)pyridin-3-yl)-1-isopropyl-3-methyl-1H-imidazo[4,5-c]cinnolin-2(3H)-one], the IC50 in [1] (setting [3]) is 0.009 µM; on PIK3Cβ (p110β), above 10 µM; against PI3Kα (p110α/p85a) it was above 10 µM; against PIK3Cδ, above 10 µM; on mTOR, above 10 µM; at PIK3Cγ (pp110γ), above 10 µM. The IC50 is above 10 µM on ATR; 0.011 µM in [2] (HT-29 cells, SN-38, read-out: SN-38 HT-29 cellular IC50); 0.0042 µM on ATM.
In the case of `COC1CCN(CCO[C@H](C)c2ccc(-c3ccc4nnc5c(c4c3)n(C(C)C)c(=O)n5C)cn2)CC1` [Example 56, (R)-1-isopropyl-8-(6-(1-(2-(4-methoxypiperidin-1-yl)ethoxy)ethyl)pyridin-3-yl)-3-methyl-1H-imidazo[4,5-c]cinnolin-2(3H)-one], the half-inhibitory concentration (IC50) at DNA-PK, at PIK3Cβ (p110β) (read-out: PI3Kβ IC50), at PI3Kα (p110α/p85a) (read-out: PI3Kα IC50), at PIK3Cδ (read-out: PI3Kδ IC50), on mTOR (read-out: mTor IC50) and on PIK3Cγ (pp110γ) (read-out: PI3Kγ IC50) was above 10 µM throughout. Besides, the IC50 on ATR was above 10 µM; on ATM it was 0.0032 µM.
Regarding `CC(C)n1c(=O)n(C)c2nnc3ccc(-c4ccc([C@@H](C)OCCN5CCCC5)nc4)cc3c21` [Example 62, (R)-1-isopropyl-3-methyl-8-(6-(1-(2-(pyrrolidin-1-yl)ethoxy)ethyl)pyridin-3-yl)-1,3-dihydro-2H-imidazo[4,5-c]cinnolin-2-one], the IC50 on mTOR (read-out: mTor IC50) is above 10 µM; on ATR it was above 10 µM; in assay [2] it was 0.021 µM; at ATM it was 0.0078 µM. In addition, the “tumor response in FaDu xenograft efficacy study” value in the assay with FaDu xenograft was “tumor xenograft regression was observed and tumors did not relapse until the end of the study”. Besides, the “Inhibition (% TGI) Combo” value in the assay on FaDu xenograft (total IR 30 Gy (3 cycles), 45 mg/kg PO. BID) came to 98.7 ± 0.51 % TGI; with FaDu xenograft (total IR 60 Gy (6 cycles), 10 mg/kg PO. BID), 80.4 ± 2.20 % TGI; with FaDu xenograft (total IR 60 Gy (6 cycles), 30 mg/kg PO. BID), 93.6 ± 1.33 % TGI.
On to `CC(C)n1c(=O)n(C)c2nnc3ccc(-c4ccc([C@@H](C)OCCN5CC[C@@H](OC6CC6)C5)nc4)cc3c21` [Example 76, 8-(6-((R)-1-(2-((R)-3-cyclopropoxypyrrolidin-1-yl)ethoxy)ethyl)pyridin-3-yl)-1-isopropyl-3-methyl-1H-imidazo[4,5-c]cinnolin-2(3H)-one], for which the IC50 on DNA-PK, against PIK3Cβ (p110β), on PI3Kα (p110α/p85a), against PIK3Cδ, on mTOR and against PIK3Cγ (pp110γ) was above 10 µM each time. This molecule also showed an IC50 on ATR above 10 µM.
Take `CC(C)n1c(=O)n(C)c2nnc3ccc(-c4ccc([C@@H](C)OCCN5CC[C@@H](C)C5)nc4)cc3c21` [Example 77, 1-isopropyl-3-methyl-8-(6-((R)-1-(2-((R)-3-methylpyrrolidin-1-yl)ethoxy)ethyl)pyridin-3-yl)-1H-imidazo[4,5-c]cinnolin-2(3H)-one]: the IC50 on DNA-PK, at PIK3Cβ (p110β) (read-out: PI3Kβ IC50), at PI3Kα (p110α/p85a) (read-out: PI3Kα IC50), on PIK3Cδ (read-out: PI3Kδ IC50), at mTOR (read-out: mTor IC50) and at PIK3Cγ (pp110γ) (read-out: PI3Kγ IC50) was above 10 µM in each case. Besides, the IC50 is above 10 µM against ATR and 0.0048 µM at ATM.
For the molecule `C[C@@H](OCCN1CCC2(CC2)C1)c1ccc(-c2ccc3nnc4c(c3c2)n(C2CCOCC2)c(=O)n4C)cn1` [Example 102, (R)-8-(6-(1-(2-(5-azaspiro[2.4]heptan-5-yl)ethoxy)ethyl)pyridin-3-yl)-3-methyl-1-(tetrahydro-2H-pyran-4-yl)-1H-imidazo[4,5-c]cinnolin-2(3H)-one], the half-inhibitory concentration (IC50) against PIK3Cβ (p110β), against PI3Kα (p110α/p85a), at PIK3Cδ, against mTOR, on PIK3Cγ (pp110γ) and against ATR was above 10 µM in each case. Besides, the “tumor response in FaDu xenograft efficacy study” value with FaDu xenograft is “tumor xenograft regression was observed and tumors did not relapse until the end of the study”.
As for `C[C@@H](OCCN1CCC2(CC1)CC2)c1ccc(-c2ccc3nnc4c(c3c2)n(C2CCOCC2)c(=O)n4C)cn1` [Example 107, (R)-8-(6-(1-(2-(6-azaspiro[2.5]octan-6-yl)ethoxy)ethyl)pyridin-3-yl)-3-methyl-1-(tetrahydro-2H-pyran-4-yl)-1H-imidazo[4,5-c]cinnolin-2(3H)-one], the IC50 in assay [1] (MCF7, read-out: Etoposide MCF-7 cellular IC50) is 0.012 µM; on mTOR (read-out: mTor IC50), above 10 µM; against ATR, above 10 µM.
Regarding `CO[C@@H]1CCN(CCO[C@H](C)c2ccc(-c3ccc4nnc5c(c4c3)n(C3CCOCC3)c(=O)n5C)cn2)C1` [Example 112, 8-(6-((R)-1-(2-((R)-3-methoxypyrrolidin-1-yl)ethoxy)ethyl)pyridin-3-yl)-3-methyl-1-(tetrahydro-2H-pyran-4-yl)-1H-imidazo[4,5-c]cinnolin-2(3H)-one], the IC50 in assay [1] (setting [3]) is 0.02 µM; at mTOR (read-out: mTor IC50) it was above 10 µM; on ATR, above 10 µM; in assay [2], 0.018 µM; on ATM, 0.0078 µM. Also, the “Inhibition (% TGI) Combo” value with FaDu xenograft (total IR 40 Gy (4 cycles), 30 mg/kg PO. BID) worked out at 77.3 ± 1.67 % TGI; with FaDu xenograft (total IR 40 Gy (4 cycles), 60 mg/kg PO. BID) it was 79.6 ± 4.20 % TGI; with FaDu xenograft (total IR 40 Gy (4 cycles), 100 mg/kg PO. BID), 82.9 ± 1.77 % TGI.
In the case of `CC(C)n1c(=O)n(C)c2nnc3ccc(-c4ccc([C@H](OCCN5CCCC5)C(F)(F)F)nc4)cc3c21` [Example 184, (S)-1-isopropyl-3-methyl-8-(6-(2,2,2-trifluoro-1-(2-(pyrrolidin-1-yl)ethoxy)ethyl)pyridin-3-yl)-1,3-dihydro-2H-imidazo[4,5-c]cinnolin-2-one], the IC50 against DNA-PK, at PIK3Cβ (p110β) (read-out: PI3Kβ IC50), on PI3Kα (p110α/p85a) (read-out: PI3Kα IC50), on PIK3Cδ (read-out: PI3Kδ IC50), at mTOR (read-out: mTor IC50) and on PIK3Cγ (pp110γ) (read-out: PI3Kγ IC50) was above 10 µM in each case. For the same molecule, the IC50 on ATR was above 10 µM; at ATM, 0.0028 µM.
